Patent US9221809B2 (MERCK SHARP & DOHME CORP., priority 2011, dated 2015)
Structures can show the parent of a compound that is named as a salt.

What follows are molecules tested against IRAK4 (Homo sapiens (Human), UniProt Q9NWZ3) (assay: IRAK4 kinase activity, IMAP fluorescence polarization assay). Details: 100 μM ATP, 0.5 nM GST tagged IRAK4; read-out: IRAK4 IC50.
Format: biochemical
Description: The kinase activity of IRAK4 is determined by its ability to catalyze the phosphorylation of a fluorescent polypeptide substrate. The extent of phosphorylation is measured using IMAP technology (Molecular Devices) where the phosphorylated fluorescent substrate binds to the large M(III)-based nanoparticles which reduces the rotational speed of the substrate and thus increases its fluorescent polarization (FP).
Assay Procedure: A 20 μl reaction mixture contains 10 mM TriHCl, pH 7.2, 0.5 nM GST tagged IRAK4 (SignalChem), 100 nM fluorescent peptide substrate (RP7030, Molecular Devices), 100 μM ATP, 1 mM DTT, 1 mM MgCl2, and 0.01% Tween 20. The reaction is initiated by the addition of ATP. After incubation for 30 minutes at 25° C., 60 μl of Progressive IMAP Reagent (Molecular Devices) is added to stop the reaction. Change in RP7030's FP is determined by a FP reader (Analyst HT, LJL BioSystems)

Sequence of IRAK4 (Q9NWZ3 whole entry): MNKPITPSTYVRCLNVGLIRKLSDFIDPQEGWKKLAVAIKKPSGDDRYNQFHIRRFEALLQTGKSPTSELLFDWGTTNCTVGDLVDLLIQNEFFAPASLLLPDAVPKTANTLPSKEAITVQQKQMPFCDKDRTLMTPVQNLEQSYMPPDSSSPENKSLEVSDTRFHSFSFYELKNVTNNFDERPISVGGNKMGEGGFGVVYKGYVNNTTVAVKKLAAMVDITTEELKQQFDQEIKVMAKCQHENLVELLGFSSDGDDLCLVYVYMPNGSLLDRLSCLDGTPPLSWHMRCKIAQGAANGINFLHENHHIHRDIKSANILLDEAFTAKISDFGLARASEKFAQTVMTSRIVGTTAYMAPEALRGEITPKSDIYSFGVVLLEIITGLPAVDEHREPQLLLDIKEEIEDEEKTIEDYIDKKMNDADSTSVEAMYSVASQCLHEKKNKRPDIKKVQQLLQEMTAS

IC50 [nM]	Compound
24	O=c1[nH]c(N2CCOCC2)nc(N[C@@H]2CCCNC2)c1-c1nc(-c2ccc(F)cc2)cs1 [Example 98, (R)-5-(4-(4-Fluorophenyl)thiazol-2-yl)-2-morpholino-6-(piperidin-3-ylamino)pyrimidin-4(3H)-one.HCl]
20	O=c1[nH]c(NC2CCC2)nc(N[C@@H]2C[C@H](CO)[C@@H](O)[C@H]2O)c1-c1nc2ccccc2s1 [Example 1, 5-(Benzo[d]thiazol-2-yl)-2-(cyclobutylamino)-6-((1R,2S,3R,4R)-2,3-dihydroxy-4-(hydroxymethyl)cyclopentylamino)pyrimidin-4(3H)-one.HCl]
19	O=c1[nH]c(N2CCOCC2)nc(N[C@@H]2CCCNC2)c1-c1nc2cc(Br)ccc2s1 [Example 345, 5-(5-bromo-1,3-benzothiazol-2-yl)-2-(morpholin-4-yl)-6-[[(3R)-piperidin-3-yl]amino]-3,4-dihydropyrimidin-4-one]
8	O=c1[nH]c(N2CCOCC2)nc(N[C@@H]2CCCNC2)c1-c1nc2cc(Cl)ccc2s1 [Example 343, (R)-5-(5-chlorobenzo[d]thiazol-2-yl)-2-morpholino-6-(piperidin-3-ylamino)pyrimidin-4(3H)-one]
24	O=c1[nH]c(N2CCCC2)nc(N[C@@H]2CCCNC2)c1-c1ccc2ccccc2n1 [Example 114, (R)-6-(piperidin-3-ylamino)-2-(pyrrolidin-1-yl)-5-(quinolin-2-yl)pyrimidin-4(3H)-one.HCl]
26.6	Cc1csc(-c2c(N[C@@H]3C[C@H](CO)[C@@H](O)[C@H]3O)nc(N3CCOCC3)[nH]c2=O)n1 [Example 32, 6-(((1R,2S,3R,4R)-2,3-Dihydroxy-4-(hydroxymethyl)cyclopentyl)amino)-5-(4-methylthiazol-2-yl)-2-morpholinopyrimidin-4(3H)-one.HCl]
345	O=c1[nH]c(Nc2cncnc2)nc(N[C@@H]2C[C@H](CO)[C@@H](O)[C@H]2O)c1-c1nc2ccccc2s1 [Example 51, 5-(Benzo[d]thiazol-2-yl)-6-(((1R,2S,3R,4R)-2,3-dihydroxy-4-(hydroxymethyl)cyclopentyl)amino)-2-(pyrimidin-5-ylamino)pyrimidin-4(3H)-one.HCl]

Same assay, conditions: 100 μM ATP; read-out: IC50

IC50 [nM]	Compound
1600	CN(C)CCNc1nc(N2CCOCC2)[nH]c(=O)c1-c1nc2ccccc2s1 [Example 260, 5-(1,3-benzothiazol-2-yl)-6-[[2-(dimethylamino)ethyl]amino]-2-(morpholin-4-yl)-3,4-dihydropyrimidin-4-one]
390	CN(c1nc(NC2CCCNC2)c(-c2nc3ccccc3s2)c(=O)[nH]1)[C@H]1CC[C@H](O)CC1 (stereo partly drawn) [Example 301, 5-(1,3-benzothiazol-2-yl)-2-[(4-hydroxycyclohexyl)(methyl)amino]-6-[[(3R)-piperidin-3-yl]amino]-3,4-dihydropyrimidin-4-one; trifluoroacetic acid]
191	O=c1[nH]c(N2CCOCC2)nc(N[C@@H]2C[C@@H]3CN[C@H]2C3)c1-c1nc2ccccc2s1 [Example 211, 6-((1S,4R,6R)-2-azabicyclo[2.2.1]heptan-6-ylamino)-5-(benzo[d]thiazol-2-yl)-2-morpholinopyrimidin-4(3H)-one]
1600	CCN1CCCC1CNc1nc(N2CCOCC2)[nH]c(=O)c1-c1ccc2ccccc2n1 (stereo not shown) [Example 277, 6-((1-ethylpyrrolidin-2-yl)methylamino)-2-morpholino-5-(quinolin-2-yl)pyrimidin-4(3H)-one]
120	Cc1ccc2sc(-c3c(N[C@@H]4CCCNC4)nc(N4CCOCC4)[nH]c3=O)nc2c1 [Example 308, 5-(5-methyl-1,3-benzothiazol-2-yl)-2-(morpholin-4-yl)-6-[[(3R)-piperidin-3-yl]amino]-3,4-dihydropyrimidin-4-one; formic acid]
78	O=c1[nH]c(N2CCC(F)(F)CC2)nc(N[C@@H]2CCCNC2)c1-c1nc2ccccc2s1 [Example 312]
260	O=c1[nH]c(C2CCN(c3ncccn3)CC2)nc(N[C@@H]2CCCNC2)c1-c1nc2ccccc2s1 [Example 244, (R)-5-(benzo[d]thiazol-2-yl)-6-(piperidin-3-ylamino)-2-(1-(pyrimidin-2-yl)piperidin-4-yl)pyrimidin-4(3H)-one]
2200	O=c1[nH]c(N2CCOCC2)nc(NCCN2CCCC2)c1-c1nc2ccccc2s1 [Example 259, 5-(1,3-benzothiazol-2-yl)-2-(morpholin-4-yl)-6-[[2-(pyrrolidin-1-yl)ethyl]amino]-3,4-dihydropyrimidin-4-one]
4	O=c1[nH]c(N2CCOCC2)nc(N[C@@H]2CCCNC2)c1-c1csc(-n2ccnc2)n1 [Example 219, (R)-5-(2-(1H-imidazol-1-yl)thiazol-4-yl)-2-morpholino-6-(piperidin-3-ylamino)pyrimidin-4(3H)-one]
720	CN1CCCC(Nc2nc(N3CCOCC3)[nH]c(=O)c2-c2ccc3ccccc3n2)C1 (stereo not shown) [Example 274, 6-[(1-methylpiperidin-3-yl)amino]-2-(morpholin-4-yl)-5-(quinolin-2-yl)-3,4-dihydropyrimidin-4-one]
3900	NC(=O)CNc1nc(N2CCOCC2)[nH]c(=O)c1-c1nc2ccccc2s1 [Example 249, 2-[[5-(1,3-benzothiazol-2-yl)-2-(morpholin-4-yl)-6-oxo-1,6-dihydropyrimidin-4-yl]amino]acetamide]
5600	O=c1[nH]c(N2CCOCC2)nc(NC2CCCCC2O)c1-c1nc2ccccc2s1 (stereo not shown) [Example 269, 5-(benzo[d]thiazol-2-yl)-6-(2-hydroxycyclohexyl-amino)-2-morpholinopyrimidin-4(3H)-one]
300	O=c1[nH]c(N2CCOCC2)nc(NC2CNC2)c1-c1nc2ccccc2s1 [Example 253, 6-[(azetidin-3-yl)amino]-5-(1,3-benzothiazol-2-yl)-2-(morpholin-4-yl)-3,4-dihydro-pyrimidin-4-one]
240	NC1CCN(c2nc(N[C@@H]3CCCNC3)c(-c3nc4ccccc4s3)c(=O)[nH]2)CC1 [Example 322, 2-(4-aminopiperidin-1-yl)-5-(1,3-benzothiazol-2-yl)-6-[[(3R)-piperidin-3-yl]amino]-3,4-dihydropyrimidin-4-one; trifluoroacetic acid]

Compound	IC50 [nM]
O=c1[nH]c(N2CCCC2)nc(N[C@@H]2CCCNC2)c1-c1nc2ccccc2s1 [Example 295]	11

Same assay, conditions: 100 μM ATP; read-out: IRAK4 IC50

IC50 [nM]	Compound
15	Cc1nonc1N1CCN(c2nc(N[C@@H]3CCCNC3)c(-c3nc4ccccc4s3)c(=O)[nH]2)CC1 [Example 139, (R)-5-(benzo[d]thiazol-2-yl)-2-(4-(4-methyl-1,2,5-oxadiazol-3-yl)piperazin-1-yl)-6-(piperidin-3-ylamino)pyrimidin-4(3H)-one]
34	O=c1[nH]c(N2CC3CC3C2)nc(N[C@@H]2CCCNC2)c1-c1ccc2ccccc2n1 (stereo partly drawn) [Example 168, 2-(3-azabicyclo[3.1.0]hexan-3-yl)-6-((R)-piperidin-3-ylamino)-5-(quinolin-2-yl)pyrimidin-4(3H)-one]
90	O=c1[nH]c(N2CCOCC2)nc(N[C@@H]2CCCNC2)c1-c1nc(-c2cc(F)ccc2F)cs1 [Example 205]
431	C[C@H]1COCCN1c1nc(N[C@@H]2CCCNC2)c(-c2nc3ccccc3s2)c(=O)[nH]1 [Example 128]
10	O=c1[nH]c(N2CCN(c3ncccn3)CC2)nc(N[C@@H]2CCCNC2)c1-c1nc2ccccc2s1 [Example 136, (R)-5-(benzo[d]thiazol-2-yl)-6-(piperidin-3-ylamino)-2-(4-(pyrimidin-2-yl)piperazin-1-yl)pyrimidin-4(3H)-one]
15	O=c1[nH]c(N2CC[C@H](CO)C2)nc(N[C@@H]2CCCNC2)c1-c1ccc2ccccc2n1 [Example 180, 2-((S)-3-(hydroxymethyl)pyrrolidin-1-yl)-6-((R)-piperidin-3-ylamino)-5-(quinolin-2-yl)pyrimidin-4(3H)-one]
22	Cc1cnc(C)c(N2CCN(c3nc(N[C@@H]4CCCNC4)c(-c4nc5ccccc5s4)c(=O)[nH]3)CC2)n1 [Example 160, (R)-5-(benzo[d]thiazol-2-yl)-2-(4-(3,6-dimethylpyrazin-2-yl)piperazin-1-yl)-6-(piperidin-3-ylamino)pyrimidin-4(3H)-one]
2400	O=c1[nH]c(N2CCOCC2)nc(N[C@@H]2CCCNC2)c1-c1nc(-c2ccc(C(F)(F)F)cn2)cs1 [Example 206]
12	O=c1[nH]c(N2CCN(c3nccs3)CC2)nc(N[C@@H]2CCCNC2)c1-c1nc2ccccc2s1 [Example 149, (R)-5-(benzo[d]thiazol-2-yl)-6-(piperidin-3-ylamino)-2-(4-(thiazol-2-yl)piperazin-1-yl)pyrimidin-4(3H)-one]
21	O=c1[nH]c(N2CCOCC2)nc(N[C@@H]2CCCNC2)c1-c1nc(-c2ccccn2)cs1 [Example 207]

Same assay, conditions: unit inferred; 100 μM ATP; read-out: IRAK4 IC50

IC50 [nM]	Compound
226	O=c1[nH]c(N2CCCN(Cc3nccs3)CC2)nc(N[C@@H]2C[C@H](CO)[C@@H](O)[C@H]2O)c1-c1nc2ccccc2s1 [Example 75, 5-(benzo[d]thiazol-2-yl)-6-((1R,2S,3R,4R)-2,3-dihydroxy-4-(hydroxymethyl)cyclopentylamino)-2-(4-(thiazol-2-ylmethyl)-1,4-diazepan-1-yl)pyrimidin-4(3H)-one]
12.1	O=c1[nH]c(N2CCN(c3ccccn3)CC2)nc(N[C@@H]2C[C@H](CO)[C@@H](O)[C@H]2O)c1-c1nc2ccccc2s1 [Example 68, 5-(benzo[d]thiazol-2-yl)-6-((1R,2S,3R,4R)-2,3-dihydroxy-4-(hydroxymethyl)cyclopentylamino)-2-(4-(pyridin-2-yl)piperazin-1-yl)pyrimidin-4(3H)-one]
